Results: patent US9682955B2, “Quinazoline derivatives useful as CB-1 inverse agonists” (Janssen Pharmaceutica NV, priority 2014, dated 2017)
“And” between values parts separate entries of the source, which are not always exact repeats. Equal values may be shown once. Read-outs that look alike come from different tables or passages of the source. Each block holds one compound with its values, some of them ahead of it.

Key:
[1] = target: Human CB1R (Cannabanoid receptor 1) (Homo sapiens (Human), UniProt P21554); assay: CB-1 in vitro cAMP assay (HTRF); type: cell-based; settings: mean where tested more than once
Chain of Human CB1R (Cannabanoid receptor 1) (P21554 whole entry): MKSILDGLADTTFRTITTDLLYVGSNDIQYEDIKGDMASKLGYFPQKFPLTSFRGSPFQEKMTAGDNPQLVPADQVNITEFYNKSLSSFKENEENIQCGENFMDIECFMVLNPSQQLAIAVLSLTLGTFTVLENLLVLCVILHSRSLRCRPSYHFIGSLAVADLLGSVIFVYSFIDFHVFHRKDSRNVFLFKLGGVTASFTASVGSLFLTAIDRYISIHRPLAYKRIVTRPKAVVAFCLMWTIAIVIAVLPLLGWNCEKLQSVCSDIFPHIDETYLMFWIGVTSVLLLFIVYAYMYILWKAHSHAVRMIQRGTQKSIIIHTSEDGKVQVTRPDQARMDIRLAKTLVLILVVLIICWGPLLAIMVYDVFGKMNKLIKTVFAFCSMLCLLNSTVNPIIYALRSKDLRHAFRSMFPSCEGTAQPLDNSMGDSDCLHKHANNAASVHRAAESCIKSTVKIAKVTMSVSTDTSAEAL
How it was run: (§1)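 HEK-293 cells stably transfected with the human receptor, plated overnight at 4E5 cells/mL. Compounds given as 1/3 serial dilutions from 10 mM DMSO stocks. Stimulation in HBSS/5 mM HEPES/0.1% BSA with 0.5 mM IBMX and forskolin (1.5 μM in buffer); cAMP measured by competitive HTRF immunoassay (d2-cAMP, cryptate anti-cAMP) against a cAMP standard curve.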

[2] = target: Human CB2R (Cannabanoid receptor 2) (Homo sapiens (Human), UniProt P34972); assay: CB-2 in vitro cAMP assay (HTRF); type: cell-based; settings: mean where tested more than once
Chain of Human CB2R (Cannabanoid receptor 2) (P34972 whole entry): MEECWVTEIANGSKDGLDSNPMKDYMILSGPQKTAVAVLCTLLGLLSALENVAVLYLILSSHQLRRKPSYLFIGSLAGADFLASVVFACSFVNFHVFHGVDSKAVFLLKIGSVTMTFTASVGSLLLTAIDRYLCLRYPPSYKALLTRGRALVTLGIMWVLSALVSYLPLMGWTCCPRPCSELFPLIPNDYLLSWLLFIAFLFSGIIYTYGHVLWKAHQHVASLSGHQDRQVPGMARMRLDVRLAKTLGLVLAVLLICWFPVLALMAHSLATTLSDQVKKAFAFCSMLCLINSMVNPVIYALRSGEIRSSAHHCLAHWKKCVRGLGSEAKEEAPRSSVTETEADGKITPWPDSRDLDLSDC
How it was run: as §1

[3] = Mouse Fast PK/BBB (plasma and brain concentration); type: in vivo, Male C57bl/6j mice; settings: for BRAIN Mean Conc. ± Std. Dev: N=3; for concentration at 1 h / concentration at 4 h: male, C57bl/6j
Method: Male Sprague Dawley rats were ordered from Charles River (225-250 gm upon arrival). They were fed standard chow diet (Purina 5001) and housed 2 per cage. Male C57bl/6j mice were ordered from Charles River at 22-25 g and housed 3 per cage. They were fed standard chow (Purina 5001). All animals were housed in a temperature-controlled room with 12-hour light/dark cycle. Animals were given food and water ad libitum, except as noted.
[…] Test compounds were administered by oral gavage (5 ml kg^−1).
Male C57bl/6j mice were dosed with test compounds at 30 mg/kg. Plasma was collected via retro-orbital bleeding at 1 hr and 4 hrs after dosing. Whole brain without cerebellum was collected at 4 hrs after dosing. Wet brain weight was recorded before freezing. Brains were homogenized in saline and sent for analysis for determination of concentration of test compound.
Tables 6A and 6B below present results for representative compounds of the present invention, tested according to the procedure as described above. Each compound was tested in three animals (N=3) and administered PO at 20 mg/kg or 30 mg/kg.

[4] = target: hCB1-CHO-K1 membranes (Homo sapiens (Human), UniProt P21554); assay: CB-1 membrane binding assay ([3H] CP 55,940 displacement); settings: [3H] CP 55,940 0.4 nM
Chain of hCB1-CHO-K1 membranes (P21554 whole entry): as the sequence (P21554 whole entry) above
Method: Into Greiner V bottom polypropylene plates, hCB1-CHO-K1 membranes (2 μg/well final concentration) in assay buffer (50 mM Tris-HCl pH 7.4, 5 mM MgCl2 and 0.5 mg/ml (0.05%) Ultra fatty acid free BSA) were dispensed. Membranes were purchased from Perkin Elmer. Test compounds were then added to each well and then [^3H] CP 55, 940 (0.4 nM final well concentration) in assay buffer (50 mM Tris-HCl pH 7.4, 5 mM MgCl2 and 0.5 mg/ml (0.05%) Ultra fatty acid free BSA) was added. Samples were mixed and incubated for 90 min at 30° C. in the Greiner V Bottom Polypropylene plate. After incubation, assay reagents were transferred to a blocked 384 well polypropylene filter plates. The binding reaction was stopped by filtration and washed seven times with ice cold rinse buffer. Filter plates were then dried overnight at room temperature. The next day, plate bottoms were sealed with plate tape and 15 μl MicroScint 20 was added to each well. Plates were incubated for 2h and radioactivity was measured by Topcount.
Total Binding levels were achieved by combining membrane, DMSO, and [^3H] CP-55,940 (also known as 5-(1,1-dimethylheptyl)-2-[(1R,2R,5R)-5-hydroxy-2-(3-hydroxypropyl)cyclohexyl]-phenol). […]
IC50 data was calculated using raw CPM values. […] IC50 values were fit appropriately and calculated using the following equation: […]

[5] = PO 20 mg/kg, 10% PEG400 and 10% Solutol in water, 1 hr, individual animals
[6] = PO 20 mg/kg, 10% PEG400 and 10% Solutol in water, 4 hr, individual animals
[7] = PO 30 mg/kg, 5% NMP and 20% HPβCD ~pH8 in water, 1 hr, individual animals
[8] = PO 30 mg/kg, 5% NMP and 20% HPβCD ~pH8 in water, 4 hr, individual animals

EC50 [1]: 21 nM
EC50 [2]: 4460 nM
BRAIN Mean Conc. ± Std. Dev ([3]; PO 30 mg/kg, 1 hr): BLOQ ± NA
BRAIN Mean Conc. ± Std. Dev ([3]; PO 30 mg/kg, 4 hr): BLOQ ± NA
concentration at 1 h ([3]; plasma, PO 30 mg/kg, 1 hr, N=3, read-out: PLASMA Mean Conc. ± Std. Dev): 946 ± 99.4 ng/mL
concentration at 4 h ([3]; plasma, PO 30 mg/kg, 4 hr, N=3, read-out: PLASMA Mean Conc. ± Std. Dev): 1300 ± 155 ng/mL
SMILES: OCC(CO)(CO)COc1nc(NCc2cccc(C(F)(F)F)c2)c2cc(C(c3ccc(Cl)cc3)c3ccc(Cl)cc3)ccc2n1 [Compound #54, 2-(((6-(bis(4-chlorophenyl)methyl)-4-((3-(trifluoromethyl)benzyl)amino)quinazolin-2-yl)oxy)methyl)-2-(hydroxymethyl)propane-1,3-diol]

EC50 [1]: 14 nM
EC50 [2]: 323 nM
BRAIN Range of Conc. [3, 5]: ND, ND, ND
PLASMA Range of Conc. [3, 5]: ND, BLOQ, ND
BRAIN Range of Conc. [3, 6]: ND, ND, ND
PLASMA Range of Conc. [3, 6]: 17.155 ng/mL and 6.427 ng/mL
BRAIN Range of Conc. [3, 7]: BLOQ, BLOQ,
PLASMA Range of Conc. [3, 7]: 280 ng/mL and 9.10 ng/mL and 9.00 ng/mL
BRAIN Range of Conc. [3, 8]: BLOQ, BLOQ,
PLASMA Range of Conc. [3, 8]: BLOQ, BLOQ,
concentration at 4 h ([3]; plasma, PO 20 mg/kg, 10% PEG400 and 10% Solutol in water, 4 hr, individual animals, read-out: PLASMA Range of Conc.): 16.1 ng/mL
SMILES: O=C(O)c1ccc(S(=O)(=O)N2CCC(Nc3ncnc4ccc(C(c5ccc(Cl)cc5)c5ccc(Cl)cc5)cc34)CC2)cc1 [Compound #93, 4-((4-((6-(bis(4-chlorophenyl)methyl)quinazolin-4-yl)amino)piperidin-1-yl)sulfonyl)benzoic acid]

IC50 [4]: 74 nM
EC50 [1]: 24 nM
EC50 [2]: 2450 nM
SMILES: CS(=O)(=O)N1CCC(Nc2ncnc3ccc(C(c4ccc(Cl)cc4)c4ccc(Cl)cc4)cc23)CC1 [Compound #140, 6-(bis(4-chlorophenyl)methyl)-N-(1-(methylsulfonyl)piperidin-4-yl) quinazolin-4-amine]

EC50 [1]: 11 nM
EC50 [2]: > 10000 nM
concentration at 1 h ([3]; brain, PO 20 mg/kg, 1 hr, N=3, read-out: BRAIN Mean Conc. ± Std. Dev): 61.7 ± 22.6 ng/mL
concentration at 4 h ([3]; brain, PO 20 mg/kg, 4 hr, N=3, read-out: BRAIN Mean Conc. ± Std. Dev): 192 ± 14 ng/mL
concentration at 1 h ([3]; plasma, PO 20 mg/kg, 1 hr, N=3, read-out: PLASMA Mean Conc. ± Std. Dev): 3300 ± 537 ng/mL
concentration at 4 h ([3]; plasma, PO 20 mg/kg, 4 hr, N=3, read-out: PLASMA Mean Conc. ± Std. Dev): 3790 ± 743 ng/mL
SMILES: FC(F)(F)c1ccc(CNc2ncnc3ccc(C(c4ccc(Cl)cc4)c4ccc(Cl)cc4)cc23)cc1 [compound 138, 6-(bis(4-chlorophenyl)methyl)-N-(4-(trifluoromethyl)benzyl)quinazolin-4-amine]
